The source of these data is PMC5749554 (Drug Design, Development and Therapy, 2017).

Format in all cases: biochemical
Conditions in all cases: liver microsomes
On the technique in general: Liver microsomes are vesicles of endoplasmic reticulum, rich in cytochrome P450 enzymes.

Series [1] addresses T1, CYP2C9 (HLM) (Homo sapiens, UniProt P11712). The series can be described thus: cocktail probe-substrate assay, HPLC.
Series [2] addresses T2, CYP2D6 (HLM) (Homo sapiens, UniProt P10635). The series can be described thus: HPLC-MS/MS of alpha-hydroxymetoprolol.
The target in series [3] is T1, CYP2C9 (HLM). The series can be described thus: HPLC-UV of 4-hydroxytolbutamide.
For another series, the target named is CYP2E1 (HLM) (Homo sapiens, UniProt P05181). The series can be described thus: cocktail probe-substrate assay, HPLC.
Chain of CYP2E1 (HLM) (P05181 whole entry): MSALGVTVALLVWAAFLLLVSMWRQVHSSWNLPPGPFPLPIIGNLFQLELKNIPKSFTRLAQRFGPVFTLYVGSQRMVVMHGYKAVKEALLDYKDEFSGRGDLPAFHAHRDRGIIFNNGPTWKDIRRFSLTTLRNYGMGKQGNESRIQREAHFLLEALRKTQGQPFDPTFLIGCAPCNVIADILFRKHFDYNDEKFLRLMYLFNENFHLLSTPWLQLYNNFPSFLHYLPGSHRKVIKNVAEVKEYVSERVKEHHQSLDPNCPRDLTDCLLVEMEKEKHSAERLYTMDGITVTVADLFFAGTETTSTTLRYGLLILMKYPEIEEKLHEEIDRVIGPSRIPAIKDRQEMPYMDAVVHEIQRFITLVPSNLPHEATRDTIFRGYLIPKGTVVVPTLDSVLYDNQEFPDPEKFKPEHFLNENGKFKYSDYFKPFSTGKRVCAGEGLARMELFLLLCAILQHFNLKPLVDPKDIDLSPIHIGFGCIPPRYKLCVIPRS
Series [4] has as its target T2, CYP2D6 (HLM). Description: cocktail probe-substrate assay, HPLC.
For another series, the target named is T3, CYP1A2 (HLM) (Homo sapiens, UniProt P05177).
T3 sequence (P05177 2-516): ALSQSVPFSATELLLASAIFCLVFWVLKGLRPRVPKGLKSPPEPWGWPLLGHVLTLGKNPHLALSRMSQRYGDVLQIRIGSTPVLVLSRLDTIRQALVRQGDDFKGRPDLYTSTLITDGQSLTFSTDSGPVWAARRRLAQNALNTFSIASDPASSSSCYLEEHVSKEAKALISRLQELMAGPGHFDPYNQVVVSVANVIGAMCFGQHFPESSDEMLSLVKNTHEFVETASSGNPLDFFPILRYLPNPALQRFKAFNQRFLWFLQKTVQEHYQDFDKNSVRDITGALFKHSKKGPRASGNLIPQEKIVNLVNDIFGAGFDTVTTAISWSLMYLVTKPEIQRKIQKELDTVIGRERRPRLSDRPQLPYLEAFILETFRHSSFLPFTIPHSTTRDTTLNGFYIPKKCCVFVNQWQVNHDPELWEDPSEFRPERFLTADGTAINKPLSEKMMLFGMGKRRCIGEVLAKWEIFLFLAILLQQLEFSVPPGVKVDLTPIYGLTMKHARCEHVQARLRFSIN
The series can be described thus: cocktail probe-substrate assay, HPLC.

The target in the next series is CYP3A4 (HLM) (Homo sapiens, UniProt P08684). Description: cocktail probe-substrate assay, HPLC.
Chain of CYP3A4 (HLM) (P08684 2-503): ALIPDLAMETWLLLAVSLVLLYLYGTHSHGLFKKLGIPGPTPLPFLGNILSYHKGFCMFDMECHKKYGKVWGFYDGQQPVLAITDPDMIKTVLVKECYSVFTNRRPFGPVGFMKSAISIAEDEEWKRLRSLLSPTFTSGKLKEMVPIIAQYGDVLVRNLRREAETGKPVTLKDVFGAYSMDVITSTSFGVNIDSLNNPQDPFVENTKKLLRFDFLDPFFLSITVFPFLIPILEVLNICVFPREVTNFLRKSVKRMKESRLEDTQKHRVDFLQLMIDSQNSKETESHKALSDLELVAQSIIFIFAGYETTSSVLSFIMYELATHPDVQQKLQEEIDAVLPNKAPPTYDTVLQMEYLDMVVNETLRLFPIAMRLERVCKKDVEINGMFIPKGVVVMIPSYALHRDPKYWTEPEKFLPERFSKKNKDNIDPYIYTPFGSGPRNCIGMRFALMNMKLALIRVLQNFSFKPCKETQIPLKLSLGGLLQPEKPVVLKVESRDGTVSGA

A value given as a limit tells only on which side of the number the result lay.

T2 sequence (P10635 whole entry): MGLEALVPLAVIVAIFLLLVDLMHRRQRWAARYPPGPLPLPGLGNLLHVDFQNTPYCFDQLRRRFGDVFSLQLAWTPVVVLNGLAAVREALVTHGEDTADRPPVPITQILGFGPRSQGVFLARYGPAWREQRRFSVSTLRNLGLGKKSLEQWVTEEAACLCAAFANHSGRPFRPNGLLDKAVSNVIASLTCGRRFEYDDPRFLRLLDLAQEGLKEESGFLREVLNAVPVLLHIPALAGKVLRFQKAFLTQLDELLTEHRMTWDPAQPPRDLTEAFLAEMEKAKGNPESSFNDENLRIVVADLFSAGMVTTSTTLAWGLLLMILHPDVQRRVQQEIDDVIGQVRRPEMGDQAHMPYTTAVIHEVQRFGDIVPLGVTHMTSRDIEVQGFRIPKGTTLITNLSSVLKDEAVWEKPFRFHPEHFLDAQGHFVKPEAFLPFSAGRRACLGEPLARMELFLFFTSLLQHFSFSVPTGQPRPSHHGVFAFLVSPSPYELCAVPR
T1 sequence (P11712 whole entry): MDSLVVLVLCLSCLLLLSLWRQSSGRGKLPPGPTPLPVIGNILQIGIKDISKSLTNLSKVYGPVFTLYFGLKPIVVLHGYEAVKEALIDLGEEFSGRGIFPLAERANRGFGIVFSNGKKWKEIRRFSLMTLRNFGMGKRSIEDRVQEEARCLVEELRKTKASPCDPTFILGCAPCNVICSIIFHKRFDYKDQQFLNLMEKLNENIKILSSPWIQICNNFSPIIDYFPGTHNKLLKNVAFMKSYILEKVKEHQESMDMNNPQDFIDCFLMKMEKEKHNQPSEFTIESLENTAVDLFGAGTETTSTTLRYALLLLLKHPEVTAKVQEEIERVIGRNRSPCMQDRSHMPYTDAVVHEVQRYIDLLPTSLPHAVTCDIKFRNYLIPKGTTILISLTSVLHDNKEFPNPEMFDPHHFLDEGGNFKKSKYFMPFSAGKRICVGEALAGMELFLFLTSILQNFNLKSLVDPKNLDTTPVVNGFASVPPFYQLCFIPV

In general, IC50 refers to the concentration that gives 50% inhibition. A high value points to lower potency. By Ki is commonly meant the equilibrium dissociation constant of an inhibitor or competing ligand from its target. The low end stands for tighter binding, the high end for weaker binding. Take `COc1cc2c(cc1OC)-c1cc3ccc4c(c3c[n+]1CC2)OCO4` [Epiberberine]: the IC50 against CYP2C9 (HLM) [1] was 8.18 µM; at CYP2E1 (HLM), 66.3 µM; against CYP2D6 (HLM) [4], 11.9 µM; against CYP1A2 (HLM), above 100 µM; at CYP3A4 (HLM) it was 81.5 µM. The Ki on CYP2D6 (HLM) [2] was found to be 25.4 µM; on CYP2C9 (HLM) [3], 5.64 µM.
